{"source": "paper PMC9032457", "about": "“Binding Interaction of Betulinic Acid to α-Glucosidase and Its Alleviation on Postprandial Hyperglycemia” (Molecules, 2022)", "key": {"[1]": {"test_system": "postprandial blood glucose level", "test": "Oral glucose tolerance test (OGTT)", "format": "in vivo, BALB/c mice", "conditions": "normal mice, oral BA 20 mg/kg or acarbose 7 mg/kg; glucose 2 g/kg", "protocol": "(§1) The dynamic characteristics of postprandial blood glucose level were evaluated by ODTT and OGTT, which were performed as described previously. BALB/c mice (5 weeks old, male) were purchased from Guangdong Medical Laboratory Animal Center (Guangzhou, China). The animal study was approved by the Committee on the Ethics of Animal Experiments of the Institute of Microbiology, Guangdong Academy of Science (GT-IACUC202012102). After one week of acclimation, the mice were randomly divided into a control group, BA-treated group and acarbose-treated group (n = 8), respectively. […] After 30 min, all the mice were intragastrically administered with the mixed maltose-sucrose solution (2 g/kg). In total, 10 μL of blood was collected by tail cut and glucose levels at 0, 30, 60, 90 and 120 min was measured by glucometer (Roche ACCU-CHEK Performa Nano), respectively. Two days later, all the mice were give the oral glucose tolerance test (OGTT), which was performed as the ODTT modus. The oral dose of glucose was also 2 g/kg."}, "α-glucosidase [2]": {"target": "T1, α-glucosidase (Saccharomyces cerevisiae, UniProt P53341)", "T1 construct": "purchased Sigma-Aldrich", "T1 sequence (P53341 whole entry)": "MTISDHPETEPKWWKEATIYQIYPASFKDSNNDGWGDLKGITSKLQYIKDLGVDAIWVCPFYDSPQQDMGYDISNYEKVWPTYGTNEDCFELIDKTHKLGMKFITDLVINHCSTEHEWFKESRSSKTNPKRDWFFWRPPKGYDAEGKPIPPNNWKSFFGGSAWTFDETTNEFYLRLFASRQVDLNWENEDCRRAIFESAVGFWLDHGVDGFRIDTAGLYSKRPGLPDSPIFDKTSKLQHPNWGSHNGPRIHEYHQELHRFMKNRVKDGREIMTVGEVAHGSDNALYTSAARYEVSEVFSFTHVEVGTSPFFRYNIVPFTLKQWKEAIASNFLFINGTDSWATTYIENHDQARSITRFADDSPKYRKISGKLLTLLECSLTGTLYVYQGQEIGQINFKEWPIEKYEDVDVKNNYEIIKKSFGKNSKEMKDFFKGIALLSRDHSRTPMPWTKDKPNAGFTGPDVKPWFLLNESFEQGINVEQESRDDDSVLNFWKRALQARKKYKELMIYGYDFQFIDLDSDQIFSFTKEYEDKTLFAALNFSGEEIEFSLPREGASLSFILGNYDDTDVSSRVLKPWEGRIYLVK", "test": "SPR assay (Biacore T200)", "format": "binding", "conditions": "1:1 Langmuir model, enzyme immobilized on CM5 chip, read-out: equilibrium dissociation constant (KD)", "protocol": "SPR analysis was applied on a Biacore T200 system (GE Healthcare, Uppsala, Sweden). α-Glucosidase solution (50 μg/mL) was prepared and stayed at room temperature for 30 min. Then, the activated α-glucosidase was immobilized on a CM5 sensor chip pre-activated by EDC/NHS with an amine coupling kit at a flow rate of 10 μL/min. BA solution of different concentrations containing 5% DMSO was serially injected over α-glucosidase coated surface. PBS was used as the mobile phase with a flow rate of 30 μL/min. According to the 1:1 Langmuir model, the equilibrium dissociation constant (KD) was calculated by the Biacore evaluation software. (https://www.cytivalifesciences.com/en/us/shop/protein-analysis/spr-label-free-analysis/software/biacore-insight-evaluation-software-p-23528, accessed on 26 October 2016)."}, "α-glucosidase [3]": {"target": "T1, α-glucosidase", "set-up": "method as in PMID 29902001, doi:10.1016/j.indcrop.2015.08.031, PMID 33876656", "conditions": "in vitro; read-out: IC50 against α-glucosidase, previous research; cited from earlier work"}, "α-glucosidase [4]": {"target": "T1, α-glucosidase", "test": "Combination of acarbose with BA on α-glucosidase activity", "format": "biochemical, yeast", "set-up": "key to Vab (observed residual activity) / Vc (expected residual activity): fraction of remaining α-glucosidase activity (0–1)", "protocol": "The method was the same as the α-glucosidase activity assay. […] The value for BA (Vb) was also defined. If the inhibitory effects on α-glucosidase of the two compounds are independent, the final remnant activity fraction of α-glucosidase (Vc) is equal to VaVb when the reaction is sequentially treated by those two compounds. […] The types of interaction were determined by the relationship between Vab and Va, Vb, or Vc."}, "[5]": {"test_system": "postprandial blood glucose level", "test": "Oral disaccharide tolerance test (ODTT)", "format": "in vivo, BALB/c mice", "conditions": "normal mice, oral BA 20 mg/kg or acarbose 7 mg/kg; for postprandial blood glucose levels vs control: after mixed maltose-sucrose, p < 0.01; for blood glucose level at 30 min: mixed maltose-sucrose 2 g/kg, control 12.58 ± 0.47", "protocol": "as §1"}, "α-glucosidase [6]": {"target": "T1, α-glucosidase", "test": "Enzyme inhibition kinetics (Lineweaver-Burk plot)", "format": "biochemical", "protocol": "α-Glucosidase inhibition kinetics was studied as previously reported. BA was set with the concentrations of 0, 12 and 24 μM for 0.2 U/mL α-glucosidase. A series of concentrations of pNPG were used as substrates. The inhibition type was determined by using the Lineweaver–Burk plots and its secondary equations. The kinetic parameters (Vmax and Ki) were evaluated by the nonlinear regression of the Michaelis–Menton equation with GraphPad Prism 7.0. (https://www.graphpad.com/support/prism-7-updates/, accessed on 12 May 2021)."}, "α-glucosidase [7]": {"target": "T1, α-glucosidase", "test": "α-Glucosidase inhibition assay (pNPG substrate)", "format": "biochemical", "protocol": "α-Glucosidase inhibition was assayed according to the methods described previously. Briefly, 40 μL phosphate buffer (0.1 M, pH = 6.8), 10 μL BA solutions and 50 μL α-glucosidase solution (0.4 U/mL) were added into 96-well plates and mixed thoroughly. After being incubated at 37 °C for 10 min, 50 μL pNPG solution (2.5 mM) was added to initiate the reaction and stayed at 37 °C for 30 min. Then, 40 μL Na2CO3 solution (1.0 M) was added to terminate the reaction. A microplate reader was employed to read the absorbance at 405 nm. The inhibition rates (%) = [(ODcontrol − ODcontrol blank) − (OD test − ODtest blank)]/(ODcontrol − ODcontrol blank) × 100%."}, "α-glucosidase [8]": {"target": "T1, α-glucosidase", "set-up": "method as in PMID 29030193", "conditions": "literature; cited from earlier work"}}, "note": "Like-named read-outs stand apart in the source and are kept apart here.", "data": [{"smiles": "C=C(C)[C@@H]1CC[C@]2(C(=O)O)CC[C@]3(C)[C@H](CC[C@@H]4[C@@]5(C)CC[C@H](O)C(C)(C)[C@@H]5CC[C@]43C)[C@@H]12", "note": "[BA, betulinic acid]", "values": [{"measurement": "effect on blood glucose level after oral glucose", "setting": "[1]", "result": "no significant effect"}, {"measurement": "Kd", "setting": "α-glucosidase [2]", "result": 55.3, "unit": "µM"}, {"measurement": "IC50", "setting": "α-glucosidase [3]", "result": "10.6 to 83.6", "unit": "µM"}, {"measurement": "Interaction", "setting": "α-glucosidase [4]; BA 5 μM + acarbose 600 μM", "result": "SY (Vab − Vc < −0.1 is considered as the synergistic (SY) interaction between BA and acarbose)"}, {"measurement": "Vab (observed residual activity)", "setting": "α-glucosidase [4]; BA 5 μM + acarbose 600 μM", "result": 0.47}, {"measurement": "Vab − Vc", "setting": "α-glucosidase [4]; BA 5 μM + acarbose 600 μM", "result": "−0.12"}, {"measurement": "Vc (expected residual activity)", "setting": "α-glucosidase [4]; BA 5 μM + acarbose 600 μM", "result": 0.59}, {"measurement": "Interaction", "setting": "α-glucosidase [4]; BA 5 μM + acarbose 800 μM", "result": "SY (Vab − Vc < −0.1 is considered as the synergistic (SY) interaction between BA and acarbose)"}, {"measurement": "Vab (observed residual activity)", "setting": "α-glucosidase [4]; BA 5 μM + acarbose 800 μM", "result": 0.42}, {"measurement": "Vab − Vc", "setting": "α-glucosidase [4]; BA 5 μM + acarbose 800 μM", "result": "−0.15"}, {"measurement": "Vc (expected residual activity)", "setting": "α-glucosidase [4]; BA 5 μM + acarbose 800 μM", "result": 0.56}, {"measurement": "Interaction", "setting": "α-glucosidase [4]; BA 5 μM + acarbose 1000 μM", "result": "SY (Vab − Vc < −0.1 is considered as the synergistic (SY) interaction between BA and acarbose)"}, {"measurement": "Vab (observed residual activity)", "setting": "α-glucosidase [4]; BA 5 μM + acarbose 1000 μM", "result": 0.41}, {"measurement": "Vab − Vc", "setting": "α-glucosidase [4]; BA 5 μM + acarbose 1000 μM", "result": "−0.13"}, {"measurement": "Vc (expected residual activity)", "setting": "α-glucosidase [4]; BA 5 μM + acarbose 1000 μM", "result": 0.53}, {"measurement": "Interaction", "setting": "α-glucosidase [4]; BA 10 μM + acarbose 600 μM", "result": "SY (Vab − Vc < −0.1 is considered as the synergistic (SY) interaction between BA and acarbose)"}, {"measurement": "Vab (observed residual activity)", "setting": "α-glucosidase [4]; BA 10 μM + acarbose 600 μM", "result": 0.39}, {"measurement": "Vab − Vc", "setting": "α-glucosidase [4]; BA 10 μM + acarbose 600 μM", "result": "−0.18"}, {"measurement": "Vc (expected residual activity)", "setting": "α-glucosidase [4]; BA 10 μM + acarbose 600 μM", "result": 0.57}, {"measurement": "Interaction", "setting": "α-glucosidase [4]; BA 10 μM + acarbose 800 μM", "result": "SY (Vab − Vc < −0.1 is considered as the synergistic (SY) interaction between BA and acarbose)"}, {"measurement": "Vab (observed residual activity)", "setting": "α-glucosidase [4]; BA 10 μM + acarbose 800 μM", "result": 0.36}, {"measurement": "Vab − Vc", "setting": "α-glucosidase [4]; BA 10 μM + acarbose 800 μM", "result": "−0.18"}, {"measurement": "Vc (expected residual activity)", "setting": "α-glucosidase [4]; BA 10 μM + acarbose 800 μM", "result": 0.54}, {"measurement": "Interaction", "setting": "α-glucosidase [4]; BA 10 μM + acarbose 1000 μM", "result": "SY (Vab − Vc < −0.1 is considered as the synergistic (SY) interaction between BA and acarbose)"}, {"measurement": "Vab (observed residual activity)", "setting": "α-glucosidase [4]; BA 10 μM + acarbose 1000 μM", "result": 0.34}, {"measurement": "Vab − Vc", "setting": "α-glucosidase [4]; BA 10 μM + acarbose 1000 μM", "result": "−0.17"}, {"measurement": "Vc (expected residual activity)", "setting": "α-glucosidase [4]; BA 10 μM + acarbose 1000 μM", "result": 0.51}, {"measurement": "Interaction", "setting": "α-glucosidase [4]; BA 15 μM + acarbose 600 μM", "result": "SY (Vab − Vc < −0.1 is considered as the synergistic (SY) interaction between BA and acarbose)"}, {"measurement": "Vab (observed residual activity)", "setting": "α-glucosidase [4]; BA 15 μM + acarbose 600 μM", "result": 0.32}, {"measurement": "Vab − Vc", "setting": "α-glucosidase [4]; BA 15 μM + acarbose 600 μM", "result": "−0.18"}, {"measurement": "Vc (expected residual activity)", "setting": "α-glucosidase [4]; BA 15 μM + acarbose 600 μM", "result": 0.50}, {"measurement": "Interaction", "setting": "α-glucosidase [4]; BA 15 μM + acarbose 800 μM", "result": "SY (Vab − Vc < −0.1 is considered as the synergistic (SY) interaction between BA and acarbose)"}, {"measurement": "Vab (observed residual activity)", "setting": "α-glucosidase [4]; BA 15 μM + acarbose 800 μM", "result": 0.29}, {"measurement": "Vab − Vc", "setting": "α-glucosidase [4]; BA 15 μM + acarbose 800 μM", "result": "−0.18"}, {"measurement": "Vc (expected residual activity)", "setting": "α-glucosidase [4]; BA 15 μM + acarbose 800 μM", "result": 0.48}, {"measurement": "Interaction", "setting": "α-glucosidase [4]; BA 15 μM + acarbose 1000 μM", "result": "SY (Vab − Vc < −0.1 is considered as the synergistic (SY) interaction between BA and acarbose)"}, {"measurement": "Vab (observed residual activity)", "setting": "α-glucosidase [4]; BA 15 μM + acarbose 1000 μM", "result": 0.28}, {"measurement": "Vab − Vc", "setting": "α-glucosidase [4]; BA 15 μM + acarbose 1000 μM", "result": "−0.16"}, {"measurement": "Vc (expected residual activity)", "setting": "α-glucosidase [4]; BA 15 μM + acarbose 1000 μM", "result": 0.45}, {"measurement": "postprandial blood glucose levels vs control", "setting": "[5]", "result": "significantly suppressed"}, {"measurement": "blood glucose level at 30 min", "setting": "[5]", "result": "10.46 ± 0.31", "unit": "mM"}, {"measurement": "inhibition type", "setting": "α-glucosidase [6]; Lineweaver-Burk plot, BA 0, 12 and 24 μM, 0.2 U/mL enzyme", "result": "non-competitive"}, {"measurement": "Ki", "setting": "α-glucosidase [6]; from secondary plot of slope vs. BA, read-out: inhibition kinetic constant (Ki)", "result": 38.5, "unit": "µM"}, {"measurement": "fold stronger than acarbose (IC50)", "setting": "α-glucosidase [7]; BA IC50 vs acarbose IC50", "result": "approximately 50 fold"}, {"measurement": "IC50", "setting": "α-glucosidase [7]; pNPG 2.5 mM, pH 6.8, 37 °C, read-out: IC50 against α-glucosidase", "result": "16.8 ± 1.16", "unit": "µM"}]}, {"smiles": "C[C@H]1O[C@H](O[C@H]2[C@H](O)[C@@H](O)[C@@H](O[C@H]3[C@H](O)[C@@H](O)C(O)O[C@@H]3CO)O[C@@H]2CO)[C@H](O)[C@@H](O)[C@@H]1N[C@H]1C=C(CO)[C@@H](O)[C@H](O)[C@H]1O", "note": "(stereo partly drawn) [acarbose, reference compound]", "values": [{"measurement": "effect on blood glucose level after oral glucose", "setting": "[1]", "result": "no significant effect"}, {"measurement": "postprandial blood glucose levels vs control", "setting": "[5]", "result": "significantly suppressed"}, {"measurement": "blood glucose level at 30 min", "setting": "[5]", "result": "10.76 ± 0.39", "unit": "mM"}, {"measurement": "inhibition type", "setting": "α-glucosidase [8]", "result": "competitive"}]}, {"smiles": "CC1(C)CC[C@]2(C(=O)O)CC[C@]3(C)C(=CC[C@@H]4[C@@]5(C)CC[C@H](O)C(C)(C)[C@@H]5CC[C@]43C)[C@@H]2C1", "note": "[oleanolic acid]", "values": [{"measurement": "inhibition type", "setting": "α-glucosidase [8]", "result": "non-competitive"}]}, {"smiles": "C[C@H]1[C@H](C)CC[C@]2(C(=O)O)CC[C@]3(C)C(=CC[C@@H]4[C@@]5(C)CC[C@H](O)C(C)(C)[C@@H]5CC[C@]43C)[C@H]12", "note": "[ursolic acid]", "values": [{"measurement": "inhibition type", "setting": "α-glucosidase [8]", "result": "non-competitive"}]}]}
